Data: US20230391772A1, “METHODS AND COMPOSITIONS FOR TARGETED PROTEIN DEGRADATION” (Ranok Therapeutics (Hangzhou) Co. Ltd., priority 2020, published 2023)

What was measured:
HSP90a protein = target: T1, HSP90a protein (Homo sapiens, UniProt P07900); assay: HSP90α-binding fluorescent polarization (FP) assay, BODIPY-labeled RNK04010 probe; conditions: FP competition with RNK04010 (BODIPY-labeled), 5 nM, 300 min at 25° C.
T1 construct: purchased BPS Bioscience 50298
Method in brief: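 Polarization signal was read after equilibration at 25° C, for 120 min with FITC-geldanamycin or 300 min with the BODIPY-tagged RNK04010 probe, each at 5 nM final. Compounds spanned 20 μM down to 5.2 nM in 2.5-fold dilutions against the HSP90a N-terminal domain.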

[1] = test system: NCI-H358 human non-small cell lung cancer; assay: NCI-H358 CCK-8 proliferation assay; assay type: cell-based; conditions: NCI-H358 cells, 72 hr
Method in brief: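 Compounds were tested as a 3-fold series from 20 μM down to 1.02 nM in CCK-8 absorbance assays. The lines used were NCI-H23 and NCI-H358, each with 1 KRAS(G12C) copy, and MIA PaCa-2 with 2 copies. Inhibition was derived relative to DMSO controls, with a no-cell blank subtracted.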

| SMILES | IC50 (HSP90a protein) [µM] | EC50 [1] [µM] |
| --- | --- | --- |
| C=CC(=O)N1CCN(c2nc(NCCC(=O)NCCOCCOCCN[C@@H](C)C(=O)N[C@H](C(=O)N3CCC[C@H]3C(=O)Nc3snnc3-c3ccccc3)C3CCCCC3)nc3c2CCN(c2cc(O)cc4ccccc24)C3)CC1 [Compound 20, (S)-1-((2S,5S)-18-((4-(4-acryloylpiperazin-1-yl)-7-(3-hydroxynaphthalen-1-yl)-5,6,7,8-tetrahydropyrido[3,4-d]pyrimidin-2-yl)amino)-2-cyclohexyl-5-methyl-4,16-dioxo-9,12-dioxa-3,6,15-triazaoctadecanoyl)-N-(4-phenyl-1,2,3-thiadiazol-5-yl)pyrrolidine-2-carboxamide, trifluoroacetic acid] | > 1 | > 1 |
| CC(=O)N1CCN(c2nc(NCCC(=O)N3CCN(Cc4ccc5c(c4)CN(C(=O)c4cc(C(C)C)c(O)cc4O)C5)CC3)nc3c2CCN(c2cc(O)cc4ccccc24)C3)CC1 [Compound 56, 3-((4-(4-acetylpiperazin-1-yl)-7-(3-hydroxynaphthalen-1-yl)-5,6,7,8-tetrahydropyrido[3,4-d]pyrimidin-2-yl)amino)-1-(4-((2-(2,4-dihydroxy-5-isopropylbenzoyl)isoindolin-5-yl)methyl)piperazin-1-yl)propan-1-one, trifluoroacetic acid] | 0.1 to 1 | > 1 |
| C=CC(=O)N1CCN(c2nc(NCCC(=O)NCc3ccc(-n4c(O)nnc4-c4cc(C(C)C)c(O)cc4O)cc3F)nc3c2CCN(c2cccc4ccccc24)C3)C[C@H]1CC#N [Compound 96, (R)-3-((4-(4-acryloyl-3-(cyanomethyl)piperazin-1-yl)-7-(naphthalen-1-yl)-5,6,7,8-tetrahydropyrido[3,4-d]pyrimidin-2-yl)amino)-N-(4-(3-(2,4-dihydroxy-5-isopropylphenyl)-5-hydroxy-4H-1,2,4-triazol-4-yl)-2-fluorobenzyl)propanamide, trifluoroacetic acid] | 0.1 to 1 | > 1 |
| CCC(=O)N1CCN(c2nc(NCCC(=O)N3CCC(CN4CCN(Cc5ccc(-n6c(C(=O)NC(CC)CC)nnc6-c6cc(CC)c(O)cc6O)cc5)CC4)CC3)nc3c2CCN(c2cc(O)cc4ccccc24)C3)CC1 [Compound 117, 5-(5-ethyl-2,4-dihydroxyphenyl)-4-(4-((4-((1-(3-((7-(3-hydroxynaphthalen-1-yl)-4-(4-propionylpiperazin-1-yl)-5,6,7,8-tetrahydropyrido[3,4-d]pyrimidin-2-yl)amino)propanoyl)piperidin-4-yl)methyl)piperazin-1-yl)methyl)phenyl)-N-(pentan-3-yl)-4H-1,2,4-triazole-3-carboxamide, trifluoroacetic acid] | 0.1 to 1 | 0.1 to 1 |
| C=CC(=O)N1CCN(c2nc(NCCC(=O)NCc3ccc(-n4c(O)nnc4-c4cc(CC)c(O)cc4O)cc3C(F)(F)F)nc3c2CCN(c2cc(O)cc4ccccc24)C3)CC1 [Compound 39, 3-((4-(4-acryloylpiperazin-1-yl)-7-(3-hydroxynaphthalen-1-yl)-5,6,7,8-tetrahydropyrido[3,4-d]pyrimidin-2-yl)amino)-N-(4-(3-(5-ethyl-2,4-dihydroxyphenyl)-5-hydroxy-4H-1,2,4-triazol-4-yl)-2-(trifluoromethyl)benzyl)propanamide, trifluoroacetic acid] | > 1 | > 1 |
| C=CC(=O)N1CCN(c2nc(NCCC(=O)N3CCN(c4ccc(-n5c(O)nnc5-c5cc(C(C)C)c(O)cc5O)cc4)CC3)nc3c2CCN(c2cccc4ccccc24)C3)C[C@H]1CC#N [Compound 90, (R)-2-(1-acryloyl-4-(2-((3-(4-(4-(3-(2,4-dihydroxy-5-isopropylphenyl)-5-hydroxy-4H-1,2,4-triazol-4-yl)phenyl)piperazin-1-yl)-3-oxopropyl)amino)-7-(naphthalen-1-yl)-5,6,7,8-tetrahydropyrido[3,4-d]pyrimidin-4-yl)piperazin-2-yl)acetonitrile, trifluoroacetic acid] | 0.1 to 1 | > 1 |
| C=CC(=O)N1CCN(c2nc(NCCC(=O)N3CCC(CN4CCN(Cc5ccc(-n6c(O)nnc6-c6cc(CC)c(O)cc6O)cc5F)CC4)CC3)nc3c2CCN(c2cc(O)cc4ccccc24)C3)CC1 [Compound 8, 1-(4-(2-((3-(4-((4-(4-(3-(5-ethyl-2,4-dihydroxyphenyl)-5-hydroxy-4H-1,2,4-triazol-4-yl)-2-fluorobenzyl)piperazin-1-yl)methyl)piperidin-1-yl)-3-oxopropyl)amino)-7-(3-hydroxynaphthalen-1-yl)-5,6,7,8-tetrahydropyrido[3,4-d]pyrimidin-4-yl)piperazin-1-yl)prop-2-en-1-one, trifluoroacetic acid] | 0.1 to 1 | 0.1 to 1 |
| C=CC(=O)N1CCN(c2nc(NCCC(=O)NCc3ccc(-n4c(O)nnc4-c4cc(C(C)C)c(O)cc4O)cc3F)nc3c2CCN(c2cc(O)cc4ccccc24)C3)CC1 [Compound 47, 3-((4-(4-acryloylpiperazin-1-yl)-7-(3-hydroxynaphthalen-1-yl)-5,6,7,8-tetrahydropyrido[3,4-d]pyrimidin-2-yl)amino)-N-(4-(3-(2,4-dihydroxy-5-isopropylphenyl)-5-hydroxy-4H-1,2,4-triazol-4-yl)-2-fluorobenzyl)propenamide] | 0.1 to 1 | > 1 |
| CCC(=O)N1CCN(c2nc(NCCC(=O)NCCc3ccc(-n4c(O)nnc4-c4cc(C(C)C)c(O)cc4O)cc3)nc3c2CCN(c2cc(O)cc4ccccc24)C3)CC1 [Compound 74, N-(4-(3-(2,4-dihydroxy-5-isopropylphenyl)-5-hydroxy-4H-1,2,4-triazol-4-yl)phenethyl)-3-((7-(3-hydroxynaphthalen-1-yl)-4-(4-propionylpiperazin-1-yl)-5,6,7,8-tetrahydropyrido[3,4-d]pyrimidin-2-yl)amino)propanamide, trifluoroacetic acid] | 0.1 to 1 | > 1 |
| CC(=O)N1CCN(c2nc(NCCC(=O)NCc3ccc(-n4c(O)nnc4-c4cc(C(C)C)c(O)cc4O)cc3F)nc3c2CCN(c2cc(O)cc4ccccc24)C3)CC1 [Compound 49, 3-((4-(4-acetylpiperazin-1-yl)-7-(3-hydroxynaphthalen-1-yl)-5,6,7,8-tetrahydropyrido[3,4-d]pyrimidin-2-yl)amino)-N-(4-(3-(2,4-dihydroxy-5-isopropylphenyl)-5-hydroxy-4H-1,2,4-triazol-4-yl)-2-fluorobenzyl)propanamide, trifluoroacetic acid] | 0.1 to 1 | > 1 |
| CCc1cc(-c2nnc(O)n2-c2ccc(CNC(=O)CCNc3nc4c(c(N5CCN(C(C)=O)CC5)n3)CCN(c3cc(O)cc5ccccc35)C4)c(F)c2)c(O)cc1O [Compound 43, 3-((4-(4-acetylpiperazin-1-yl)-7-(3-hydroxynaphthalen-1-yl)-5,6,7,8-tetrahydropyrido[3,4-d]pyrimidin-2-yl)amino)-N-(4-(3-(5-ethyl-2,4-dihydroxyphenyl)-5-hydroxy-4H-1,2,4-triazol-4-yl)-2-fluorobenzyl)propanamide] | > 1 | > 1 |
| CC(=O)N1CCN(c2nc(NCCC(=O)N3CCC(Cc4ccc(CN(C)Cc5ccc(-n6c(C(=O)NCC(F)(F)F)nnc6-c6cc(C)c(O)cc6O)cc5)cc4)CC3)nc3c2CCN(c2cc(O)cc4ccccc24)C3)CC1 [Compound 114, 4-(4-(((4-((1-(3-((4-(4-acetylpiperazin-1-yl)-7-(3-hydroxynaphthalen-1-yl)-5,6,7,8-tetrahydropyrido[3,4-d]pyrimidin-2-yl)amino)propanoyl)piperidin-4-yl)methyl)benzyl)(methyl)amino)methyl)phenyl)-5-(2,4-dihydroxy-5-methylphenyl)-N-(2,2,2-trifluoroethyl)-4H-1,2,4-triazole-3-carboxamide, trifluoroacetic acid] | > 1 | > 1 |
| C=CC(=O)N1CCN(c2nc(NCCC(=O)NCCOCCOc3ccc(-n4c(O)nnc4-c4cc(CC)c(O)cc4O)cc3)nc3c2CCN(c2cc(O)cc4ccccc24)C3)CC1 [Compound 6, 3-((4-(4-acryloylpiperazin-1-yl)-7-(3-hydroxynaphthalen-1-yl)-5,6,7,8-tetrahydropyrido[3,4-d]pyrimidin-2-yl)amino)-N-(2-(2-(4-(3-(5-ethyl-2,4-dihydroxyphenyl)-5-hydroxy-4H-1,2,4-triazol-4-yl)phenoxy)ethoxy)ethyl)propanamide, trifluoroacetic acid] | > 1 | > 1 |
| CCC(=O)N1CCN(c2nc(NCCC(=O)NCc3ccc(-n4c(O)nnc4-c4cc(CC)c(O)cc4O)cc3F)nc3c2CCN(c2cc(O)cc4ccccc24)C3)CC1 [Compound 34, N-(4-(3-(5-ethyl-2,4-dihydroxyphenyl)-5-hydroxy-4H-1,2,4-triazol-4-yl)-2-fluorobenzyl)-3-((7-(3-hydroxynaphthalen-1-yl)-4-(4-propionylpiperazin-1-yl)-5,6,7,8-tetrahydropyrido[3,4-d]pyrimidin-2-yl)amino)propanamide, trifluoroacetic acid] | > 1 | > 1 |
| CCc1cc(-c2nnc(O)n2-c2ccc(CNC(=O)CCNc3nc4c(c(N5CCN(C(C)=O)CC5)n3)CCN(c3cc(O)cc5ccccc35)C4)c(C(F)(F)F)c2)c(O)cc1O [Compound 53, 3-((4-(4-acetylpiperazin-1-yl)-7-(3-hydroxynaphthalen-1-yl)-5,6,7,8-tetrahydropyrido[3,4-d]pyrimidin-2-yl)amino)-N-(4-(3-(5-ethyl-2,4-dihydroxyphenyl)-5-hydroxy-4H-1,2,4-triazol-4-yl)-2-(trifluoromethyl)benzyl)propanamide, trifluoroacetic acid] | > 1 | > 1 |
